Laboratory results from ChEMBL document CHEMBL1201862, “PubChem BioAssay data set” (2004).
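The compound was tested at five concentrations on cells cultured in 96-well plates, with a 48-hour exposure period. Here, GI50 denotes the concentration required for 50% inhibition of growth.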 Activity calls are given as the source filed them. Rule as the data show it: active = GI50 up to about 1.1 µM and inactive = higher.

Legend:
Test in all cases: NCI-60 cell line screen, 48 h
SNB-19 = test system: SNB-19
BT-549 = test system: BT-549
LOX IMVI = test system: LOX IMVI
SW-620 = test system: SW-620
MCF7 = test system: MCF7
HCT-116 = test system: HCT-116
NCI-H460 = test system: NCI-H460
NCI-H522 = test system: NCI-H522
KM12 = test system: KM12
A498 = test system: A498
NCI-H226 = test system: NCI-H226
RPMI-8226 = test system: RPMI-8226
EKVX = test system: EKVX
OVCAR-5 = test system: OVCAR-5
T47D = test system: T47D
SF-539 = test system: SF-539
OVCAR-4 = test system: OVCAR-4
CAKI-1 = test system: CAKI-1
COLO 205 = test system: COLO 205
SF-268 = test system: SF-268
CCRF-CEM = test system: CCRF-CEM
TK-10 = test system: TK-10
MDA-N = test system: MDA-N
SK-MEL-5 = test system: SK-MEL-5
UACC-62 = test system: UACC-62
Malme-3M = test system: Malme-3M
SR = test system: SR
SK-OV-3 = test system: SK-OV-3
SF-295 = test system: SF-295
HOP-92 = test system: HOP-92
K562 = test system: K562
MOLT-4 = test system: MOLT-4
SK-MEL-2 = test system: SK-MEL-2
HOP-62 = test system: HOP-62
IGROV-1 = test system: IGROV-1
Hs-578T = test system: Hs-578T
HCC 2998 = test system: HCC 2998
HT-29 = test system: HT-29
HCT-15 = test system: HCT-15
UACC-257 = test system: UACC-257
PC-3 = test system: PC-3
786-0 = test system: 786-0
OVCAR-8 = test system: OVCAR-8
SN12C = test system: SN12C
NCI-H23 = test system: NCI-H23
A549 = test system: A549
DU-145 = test system: DU-145
NCI/ADR-RES = test system: NCI/ADR-RES
MDA-MB-231 = test system: MDA-MB-231
SK-MEL-28 = test system: SK-MEL-28
RXF 393 = test system: RXF 393
UO-31 = test system: UO-31
SNB-75 = test system: SNB-75
MDA-MB-435 = test system: MDA-MB-435
U-251 = test system: U-251
ACHN = test system: ACHN
OVCAR-3 = test system: OVCAR-3
M14 = test system: M14
HL-60 = test system: HL-60

For CC(C)(C)[Si](C)(C)O[C@@H](C(=O)OC1C=CCCC1)[C@@H](NC(=O)c1ccccc1)c1ccccc1 (stereo partly drawn), the GI50 (SNB-19) was 28.8 µM (inactive), the GI50 (BT-549) was 51.1 µM (inactive) and the GI50 (LOX IMVI) was 16.7 µM (inactive). The GI50 (SW-620) was 26.2 µM (inactive), the GI50 (MCF7) was 14.8 µM (inactive) and the GI50 (HCT-116) was 12.6 µM (inactive). The GI50 (NCI-H460) was 19.9 µM (inactive), the GI50 (NCI-H522) was 16.6 µM (inactive) and the GI50 (KM12) was 25.6 µM (inactive). For the same molecule, the GI50 (A498) was 35.6 µM (inactive), the GI50 (NCI-H226) was 37.8 µM (inactive) and the GI50 (RPMI-8226) was 4.79 µM (inactive). The GI50 (EKVX) was 31.7 µM (inactive), the GI50 (OVCAR-5) was 24.4 µM (inactive) and the GI50 (T47D) was 20 µM (inactive). The GI50 (SF-539) was 61.1 µM (inactive), the GI50 (OVCAR-4) was 21.5 µM (inactive) and the GI50 (CAKI-1) was 48.6 µM (inactive). For the same molecule, the GI50 (COLO 205) was 25.3 µM (inactive), the GI50 (SF-268) was 69.5 µM (inactive) and the GI50 (CCRF-CEM) was 12.1 µM (inactive). The GI50 (TK-10) was 16.5 µM (inactive), the GI50 (MDA-N) was 31 µM (inactive) and the GI50 (SK-MEL-5) was 16.8 µM (inactive). For the same molecule, the GI50 (UACC-62) was 26.8 µM (inactive), the GI50 (Malme-3M) was 40.3 µM (inactive) and the GI50 (SR) was 15.1 µM (inactive). The GI50 (SK-OV-3) was 84.1 µM (inactive), the GI50 (SF-295) was 18.9 µM (inactive) and the GI50 (HOP-92) was 8.99 µM (inactive). The GI50 (K562) was 14 µM (inactive), the GI50 (MOLT-4) was 14.7 µM (inactive) and the GI50 (SK-MEL-2) was 18 µM (inactive). For the same molecule, the GI50 (HOP-62) was 18.4 µM (inactive), the GI50 (IGROV-1) was 37.3 µM (inactive) and the GI50 (Hs-578T) was 53.6 µM (inactive). For the same molecule, the GI50 (HCC 2998) was 14.1 µM (inactive), the GI50 (HT-29) was 14.3 µM (inactive) and the GI50 (HCT-15) was 20 µM. The GI50 (UACC-257) was 19.7 µM (inactive), the GI50 (PC-3) was 9.1 µM (inactive) and the GI50 (786-0) was 23.8 µM (inactive). For the same molecule, the GI50 (OVCAR-8) was 56.4 µM (inactive), the GI50 (SN12C) was 21 µM (inactive) and the GI50 (NCI-H23) was 29 µM (inactive). For the same molecule, the GI50 (A549) was 17.6 µM (inactive), the GI50 (DU-145) was 50.4 µM (inactive) and the GI50 (NCI/ADR-RES) was 28.6 µM (inactive). For the same molecule, the GI50 (MDA-MB-231) was 19.1 µM (inactive), the GI50 (SK-MEL-28) was 34 µM (inactive) and the GI50 (RXF 393) was 3.68 µM (inactive). The GI50 (UO-31) was 27.7 µM (inactive), the GI50 (SNB-75) was 27.7 µM (inactive) and the GI50 (MDA-MB-435) was 29.3 µM (inactive). The GI50 (U-251) was 18.2 µM (inactive), the GI50 (ACHN) was 19.1 µM (inactive) and the GI50 (OVCAR-3) was 16.1 µM (inactive).

CC1(C)CC(=O)c2[nH]c3ccccc3c2CC(=O)NCCc2cn1cn2 was tested, and the GI50 (SNB-19) was 28 µM (inactive), the GI50 (BT-549) was > 100 µM (inactive) and the GI50 (LOX IMVI) was > 100 µM (inactive). For the same molecule, the GI50 (SW-620) was > 100 µM (inactive), the GI50 (MCF7) was > 100 µM (inactive) and the GI50 (HCT-116) was > 100 µM (inactive). For the same molecule, the GI50 (NCI-H460) was > 100 µM (inactive), the GI50 (NCI-H522) was > 100 µM (inactive) and the GI50 (KM12) was > 100 µM (inactive). For the same molecule, the GI50 (A498) was > 100 µM (inactive), the GI50 (NCI-H226) was > 100 µM (inactive) and the GI50 (EKVX) was > 100 µM (inactive). For the same molecule, the GI50 (OVCAR-5) was > 100 µM (inactive), the GI50 (T47D) was > 100 µM (inactive) and the GI50 (SF-539) was > 100 µM (inactive). The GI50 (OVCAR-4) was > 100 µM (inactive), the GI50 (CAKI-1) was > 100 µM (inactive) and the GI50 (COLO 205) was > 100 µM (inactive). The GI50 (SF-268) was > 100 µM (inactive), the GI50 (M14) was > 100 µM (inactive) and the GI50 (TK-10) was > 100 µM (inactive). The GI50 (MDA-N) was > 100 µM (inactive), the GI50 (SK-MEL-5) was > 100 µM (inactive) and the GI50 (UACC-62) was > 100 µM (inactive). The GI50 (Malme-3M) was > 100 µM (inactive), the GI50 (SR) was > 100 µM (inactive) and the GI50 (SK-OV-3) was > 100 µM (inactive). For the same molecule, the GI50 (SF-295) was 82.8 µM (inactive), the GI50 (HOP-92) was 36.5 µM (inactive) and the GI50 (K562) was > 100 µM (inactive). For the same molecule, the GI50 (MOLT-4) was > 100 µM (inactive), the GI50 (SK-MEL-2) was > 100 µM (inactive) and the GI50 (IGROV-1) was > 100 µM (inactive). The GI50 (Hs-578T) was 33.5 µM (inactive), the GI50 (HCC 2998) was > 100 µM (inactive) and the GI50 (HT-29) was > 100 µM (inactive). The GI50 (HCT-15) was over 100 µM, the GI50 (UACC-257) was > 100 µM (inactive) and the GI50 (PC-3) was > 100 µM (inactive). The GI50 (786-0) was 18.6 µM (inactive), the GI50 (OVCAR-8) was > 100 µM (inactive) and the GI50 (SN12C) was > 100 µM (inactive). The GI50 (NCI-H23) was > 100 µM (inactive), the GI50 (A549) was > 100 µM (inactive) and the GI50 (DU-145) was > 100 µM (inactive). The GI50 (NCI/ADR-RES) was > 100 µM (inactive), the GI50 (MDA-MB-231) was 88.1 µM (inactive) and the GI50 (SK-MEL-28) was > 100 µM (inactive). For the same molecule, the GI50 (RXF 393) was 73.8 µM (inactive), the GI50 (UO-31) was > 100 µM (inactive) and the GI50 (SNB-75) was > 100 µM (inactive). For the same molecule, the GI50 (MDA-MB-435) was > 100 µM (inactive), the GI50 (U-251) was 56.6 µM (inactive) and the GI50 (ACHN) was 61.1 µM (inactive). The GI50 (OVCAR-3) was > 100 µM (inactive).

In the case of COc1c(OC/C=C(\C)CCC=C(C)C)ccc2ccc(=O)oc12 [COLLININ], the GI50 (SNB-19) is reported as 65.2 µM (inactive), the GI50 (BT-549) is reported as 53.3 µM (inactive) and the GI50 (LOX IMVI) is reported as > 100 µM (inactive). For the same molecule, the GI50 (SW-620) was > 100 µM (inactive), the GI50 (MCF7) was > 100 µM (inactive) and the GI50 (HCT-116) was > 100 µM (inactive). For the same molecule, the GI50 (NCI-H460) was > 10 µM (inactive), the GI50 (NCI-H522) was > 100 µM (inactive) and the GI50 (KM12) was 43.6 µM (inactive). For the same molecule, the GI50 (A498) was > 100 µM (inactive), the GI50 (RPMI-8226) was > 100 µM (inactive) and the GI50 (EKVX) was 83.9 µM (inactive). For the same molecule, the GI50 (OVCAR-5) was > 100 µM (inactive), the GI50 (T47D) was 62.5 µM (inactive) and the GI50 (SF-539) was > 100 µM (inactive). For the same molecule, the GI50 (OVCAR-4) was 51.8 µM (inactive), the GI50 (CAKI-1) was > 100 µM (inactive) and the GI50 (COLO 205) was > 100 µM (inactive). For the same molecule, the GI50 (SF-268) was 96.8 µM (inactive), the GI50 (CCRF-CEM) was > 100 µM (inactive) and the GI50 (M14) was > 100 µM (inactive). For the same molecule, the GI50 (TK-10) was > 100 µM (inactive), the GI50 (MDA-N) was > 100 µM (inactive) and the GI50 (SK-MEL-5) was 48.1 µM (inactive). For the same molecule, the GI50 (UACC-62) was 94.2 µM (inactive), the GI50 (SR) was 61.5 µM (inactive) and the GI50 (SK-OV-3) was > 100 µM (inactive). The GI50 (HL-60) was 43.4 µM (inactive), the GI50 (SF-295) was > 100 µM (inactive) and the GI50 (HOP-92) was 77.4 µM (inactive). For the same molecule, the GI50 (K562) was > 100 µM (inactive), the GI50 (MOLT-4) was 56.5 µM (inactive) and the GI50 (SK-MEL-2) was > 100 µM (inactive). The GI50 (HOP-62) was > 100 µM (inactive), the GI50 (IGROV-1) was > 100 µM (inactive) and the GI50 (Hs-578T) was 90.4 µM (inactive). For the same molecule, the GI50 (HCC 2998) was > 100 µM (inactive), the GI50 (HT-29) was 94.4 µM (inactive) and the GI50 (HCT-15) was 64.9 µM. The GI50 (UACC-257) was > 100 µM (inactive), the GI50 (PC-3) was 24.2 µM (inactive) and the GI50 (786-0) was > 100 µM (inactive). For the same molecule, the GI50 (OVCAR-8) was > 100 µM (inactive), the GI50 (SN12C) was > 100 µM (inactive) and the GI50 (NCI-H23) was > 100 µM (inactive). The GI50 (A549) was > 100 µM (inactive), the GI50 (DU-145) was > 100 µM (inactive) and the GI50 (NCI/ADR-RES) was 95.9 µM (inactive). For the same molecule, the GI50 (MDA-MB-231) was > 100 µM (inactive), the GI50 (SK-MEL-28) was > 100 µM (inactive) and the GI50 (UO-31) was > 100 µM (inactive). For the same molecule, the GI50 (SNB-75) was > 100 µM (inactive), the GI50 (MDA-MB-435) was > 100 µM (inactive) and the GI50 (U-251) was > 100 µM (inactive). The GI50 (ACHN) was > 100 µM (inactive) and the GI50 (OVCAR-3) was > 100 µM (inactive).
